Columns and labels:
Assay type in all cases: physicochemical
[1] = Particle size analysis by laser diffraction of neat API; details: for Particle Size Mean / Particle Size Median / Particle Size Mode: dispersed in cyclohexane
Source text: For particle size analysis, by laser diffraction (LD), a small sample of the dry powder was dispersed into cyclohexane with sonication and then diluted to an appropriate signal level. The optical microscope was a Zeiss Model Std 25 fitted with a 40× objective. […] The Raman spectrometer was a Horiba XploRA Raman Microscope.

[2] = Optical microscopic examination of neat API dry powder; details: for estimates of size range by optical microscopy: 400× magnification
Source text: Neat API: For optical microscopic/image analysis examination the material was used as received. A small aliquot was placed on a clean microscope slide and a clean glass coverslip placed on top.
(§1) The optical microscope was a Zeiss Model Std 25 fitted with a 40× objective. The particle size analyzers were the Horiba LA 950 (LD) and a Malvern NanoSizer 90Z (DLS). The Raman spectrometer was a Horiba XploRA Raman Microscope.

[3] = Particle size of aspirin formulation vs dry aspirin (Example 4, DLS Z-average)
Protocol: The particle size of aspirin (dry powder) and the aspirin diluted in the dermal and/or transdermal liquid formulation set forth in Example 1 were compared. Two studies were carried out to determine the particle size (and distribution) of samples of: (i) the formulation of Example 1, lacking only the aspirin (delivery system control), (ii) the formulation of Example 1, including the aspirin (experimental) and (iii) pure (dry) aspirin (control).

[4] = Particle size analysis by Dynamic Light Scattering (Example 8); details: DLS intensity data
Source text: as §1

| Molecule | size of the majority of particles [1] | Particle Size Mean [1] [μm] | Particle Size Median [1] [μm] | Particle Size Mode [1] [μm] | particle size prior to formulation [2] | size relative to aspirin in the formulation of Example 1 ([3]; dry aspirin vs formulated aspirin) | average particle size ([3]; dry aspirin, prior to formulation) [microns] | estimates of size range by optical microscopy [2] | presence of particles as large as [4] [μm] |
| --- | --- | --- | --- | --- | --- | --- | --- | --- | --- |
| CC(C(=O)O)c1cccc(C(=O)c2ccccc2)c1 (racemic) [Ketoprofen, (RS)2-(3-benzoylphenyl)-propionic acid] | about 30 μm | 34 | 27 | 28 | – | – | – | – | – |
| CC(=O)Nc1ccc(O)cc1 [Acetaminophen, N-acetyl-para-aminophenol] | – | 58 | 44 | 42 | 1-100 microns | – | – | from around one or two microns (μm) to over 100 μm | – |
| CC(C)Cc1ccc(C(C)C(=O)O)cc1 (stereo not drawn) [Ibuprofen, iso-butyl-propanoic-phenolic acid] | – | 78 | 70 | 72 | – | – | – | from around 10 μm to over 100 μm | – |
| Neat Insulin: insulin supplied as an aqueous solution/suspension | – | – | – | – | – | – | – | – | ≤ 5 |

More lines, main results first:

| size of the majority of particles [1] | Particle Size Mean [1] [μm] | Particle Size Median [1] [μm] | Particle Size Mode [1] [μm] | particle size prior to formulation [2] | size relative to aspirin in the formulation of Example 1 ([3]; dry aspirin vs formulated aspirin) | average particle size ([3]; dry aspirin, prior to formulation) [microns] | Molecule | estimates of size range by optical microscopy [2] | presence of particles as large as [4] [μm] |
| --- | --- | --- | --- | --- | --- | --- | --- | --- | --- |
| around 20 μm | 23 | 23 | 19 | – | – | – | COc1ccc2cc(C(C)C(=O)O)ccc2c1 (stereo not drawn) [Naproxen, 2-(6-methoxynaphthalen-2-yl)propanoic acid] | singlet particles of only a few microns in size and aggregates as large as 100 μm | – |
| – | – | – | – | – | more than 10,000 times | 670 | CC(=O)Oc1ccccc1C(=O)O [pure (dry) Aspirin, acetylsalicylic acid] | – | – |
